Measurements taken from patent US8153408B2, “Biocatalytic racemisation of alpha-hydroxyketones” (BASF SE, priority 2006, dated 2012).

Legend:
[1] = test system: rehydrated lyophilised (resting) cells of Lactobacillus halotoleransi DSM 20190; experiment: Biocatalytic racemisation of acyloins 5-6 by whole resting cells; format: cell-based, Lactobacillus halotolerans DSM 20190; conditions: L. halotolerans DSM 20190 cells; for Relative Rate (initial rate of racemisation relative to (R)-1 arbitrarily set as standard (100%)): aqueous BIS-TRIS buffer pH 6, 42° C.; for Racemization (extent of racemisation under standard conditions after 24 h): pH 6, 42° C.
Experimental: (§1) After 3 days, the cells were harvested by centrifugation (18000*g), lyophilised and stored at +4° C. For the biocatalytic racemisation, 50 mg of whole lyophilised cells were rehydrated in 0.5 ml aqueous BIS-TRIS buffer (50 mM, 10^−2 M MgCl2, pH 6) for 1 h at 42° C. with shaking at 150 rpm. Substrates 1-4 (5 mg) were added followed by shaking of the reaction mixture with 150 rpm at 42° C. for 24 h, 48 h and 72 h. Then the reaction mixture was extracted with ethyl acetate and the organic phase was dried over sodium sulfate. The organic phase was evaporated under reduced pressure and the residue was dissolved in HPLC-eluent. The determination the enantiomeric excess of the substrate was carried out by HPLC on a chiral stationary phase. Analysis of the enantiomeric composition versus time gave the initial rates of racemisation, which are represented as % with respect to substrate (R)-1 sert as standard (100%).
(§2) The biocatalytic racemisation of acyloins 1-4 was performed using rehydrated lyophilised (resting) cells of Lactobacillus paracasei subsp. paracasei DSM 20207 in aqueous buffer at pH 6, the racemisation of acyloins 5-6 by using rehydrated lyophilised (resting) cells of Lactobacillus halotoleransi DSM 20190.

[2] = test system: rehydrated lyophilised (resting) cells of Lactobacillus paracasei subsp. paracasei DSM 20207; experiment: Biocatalytic racemisation of acyloins 1-4 by whole resting cells; format: cell-based; conditions: L. paracasei DSM 20207 cells; for Relative Rate (initial rate of racemisation relative to (R)-1 arbitrarily set as standard (100%)): aqueous BIS-TRIS buffer pH 6, 42° C.; for racemisation rate (in words): aqueous buffer at pH 6; for Racemization (extent of racemisation under standard conditions after 24 h): pH 6, 42° C.
Experimental: as §1, §2

SMILES	racemisation (in words) [1]	Relative Rate (initial rate of racemisation relative to (R)-1 arbitrarily set as standard (100%)) [1] [%]	Racemization (extent of racemisation under standard conditions after 24 h) [1] [%]	Relative Rate (initial rate of racemisation relative to (R)-1 arbitrarily set as standard (100%)) [2] [%]	racemisation rate (in words) [2]	Racemization (extent of racemisation under standard conditions after 24 h) [2] [%]
O=C1c2ccccc2CC[C@H]1O [(R)-5, (R)-2-Hydroxy-1,2,3,4-tetranaphtalin-1-one]	high racemisation	77	92			
CC(=O)[C@@H](C)O [(R)-1, acetoin]				100	fast racemisation rate	86
O=C1c2ccccc2C[C@H]1O [(R)-6, (R)-2-Hydroxyindane-1-one]	high racemisation	58	84			
C[C@@H](O)C(=O)c1ccccc1 [(R)-4, (R)-2-hydroxypropiophenone]				65	slightly reduced	46
CC(=O)[C@H](O)c1ccccc1 [(R)-3, (R)-phenylacetylcarbinol]				67	High racemisation rates	50
